Test results reported in patent publication US20120270917A1 (The Trustees of the University of Pennsylvania, priority 2009, published 2012).
Where a name gives a salt, the structure may show the parent alone.

Assays:
AM2 (S31N) = AM2 (S31N) (Influenza A virus, UniProt P0DOF5, S31N); format: cell-based
AM2 (V27A) = AM2 (V27A) (Influenza A virus, UniProt P0DOF5, V27A); format: cell-based

Compound	AM2 (S31N) % inhibition at 100 uM (AM2 (S31N))	AM2 (S31N) % inhibition at μM (AM2 (S31N)) [%]	AM2 (V27A) % inhibition at μM (AM2 (V27A)) [%]	further results
O=[N+]([O-])C12CC3CC(CC(C3)C1)C2 [Compound 54, 1-nitroadamantane]	54 (24%)			
NC(=O)C12CC3CC(CC(C3)C1)C2 [Compound 48]	48 (7.3%)			
NS(=O)(=O)NC1C2CC3CC(C2)CC1C3 (centres unmarked) [Compound S7]		3.8		
O=CC12CC3CC(CC(C3)C1)C2 [Compound 49, 1-adamantanecarboaldehyde]	49 (11%)			
O=[N+]([O-])C1C2CC3CC(C2)CC1C3 (centres unmarked) [Compound S3]		12.4	7.4	
Cl.NC1CCC2(CC1)C1CC3CC(C1)CC2C3 (centres unmarked) [Compound S15, (1r, 3r,5r,7r)-spiro[adamantane-2,1′-cyclohexan]-4′-aminium chloride]				V27A % of inhibition by 100 μM for 2 min (AM2 (V27A)): 94.5 ± 0.4%
Cc1nc[nH]c1/C=N/OC12CC3CC(CC(C3)C1)C2 [Compound 43, 5-Methyl-3H-imidazole-4-carbaldehyde O-adamantan-1-yl-oxime]	43 (10%)			
CC(N)C12CC3CC(CC(C3)C1)C2 (centres unmarked) [Rimantadine, reference compound]				S31N % of inhibition by 100 μM for 2 min (AM2 (S31N)): 13.3 ± 1.8%
CC(NC(=N)N)C12CC3CC(CC(C3)C1)C2 (centres unmarked) [Compound 40]	40 (0%)			
N=C(NO)C12CC3CC(CC(C3)C1)C2 [Compound 46, N-hydroxyadamantanecarboximidamide]	46 (0%)			
CC1(O)C2CC3CC(C2)CC1C3 (centres unmarked) [Compound S4]		10.6	10.9	
O=[N+]([O-])C12CC3CC(CC(C3)C1)C2 [Compound S9]		24.0	19.9	
Cl.NC12CCC3CC(CC(C3)C1)C2 [Compound S12]		32.8	13.3	
Cl.Cl.N=C(N)NC(=N)NC12CC3CC(CC(C3)C1)C2 [Compound 41]	41 (0%)			
C1NC2CC3CC1CC(C3)C2.Cl [Compound 47, 4-Azatricyclo[4.3.1.1^3,8]undecan hydrochloride]	47 (8%)			
N=C(N)C12CC3CC(CC(C3)C1)C2 [Compound 44, Adamantane amidine hydrochloride]	44 (31.5%)			

Compound	AM2 (S31N) % inhibition at 100 uM (AM2 (S31N))	AM2 (S31N) % inhibition at μM (AM2 (S31N)) [%]	AM2 (V27A) % inhibition at μM (AM2 (V27A)) [%]	further results
O=C1C2CC3CC1CC(C2)C3=O [Compound 52, 2,6-diadamantone]	52 (0%)			
N=C(N)NC12CC3CC(CC(C3)C1)C2 [Compound 39, 1-(adamantyl)guanidine]	39 (0%)			
CC1(N)C2CC3CC(C2)CC1C3 (centres unmarked) [Compound S5]		13.8	7.2	
OC1(C(F)(F)F)C2CC3CC(C2)CC1C3 (centres unmarked) [Compound 53, 2-trifluoromethyl-2-adamantol]	53 (14%)			
NOC12CC3CC(CC(C3)C1)C2 [Compound 42, O-adamantylhydroxylamine]	42 (15%)			
NC12CC3CC(CC(C3)C1)C2 [Amantadine, reference compound]				S31N % of inhibition by 100 μM for 2 min (AM2 (S31N)): 34.7 ± 1.6%
NC1(C(F)(F)F)C2CC3CC(C2)CC1C3 (centres unmarked) [Compound S6]		13.7	1.5	
O=C1C2CC3CC(C2)CC1C3 [Compound S13]		0	0	
O=C1C2CC3CC(C2)CC1C3 [Compound 50]	50 (0%)			
NC12CC3CC(C1)CC(O)(C3)C2 [Compound 38]	38 (20%)			
Cl.NC1C[C@@H]2C[C@@H]3CC1[C@H](C2)C3 (stereo partly drawn) [Compound S1, (2S,3aS,5R)-octahydro-1H-2,5-methanoinden-7-aminium chloride]			25.5	
Cl.NC12CC3CCC(CC(C3)C1)C2 [Compound S2, tricyclo[4.3.1.13,8]undecan-1-aminium chloride]		23.7	13.6	
OC1(C(F)(F)F)C2CC3CC(C2)CC1C3 (centres unmarked) [Compound S8]		14.0	10.6	
Cl.NC1C2CC3CC(C2)CC1C3 (centres unmarked) [Compound S14]		18.2	0	
NC1CSC2(SC1)C1CC3CC(C1)CC2C3 (centres unmarked) [Compound 45]	45 (0%)			
